# Test results: PubChem BioAssay AID1845212 (Molecular Pharmacology Branch, DTP, NCI, 2023)
# Test system: NCI-H719 tumor spheroids, viability
# Assay: Anticancer human tumor NCI-H719 cell line growth inhibition;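 also: spheroids exposed to compounds for seven days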;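 as to viability, T/C: percent viability relative to DMSO vehicle control as 100%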
# Settings: spheroids with HUVEC and MSC; for IC50: curve of first compound; for viability, T/C: stronger effect = lower value
# Method in brief: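 Complex spheroids of malignant cells with endothelial cells and mesenchymal stem cells; agents alone or combined, from near clinical Cmax (or 10 microM if unknown) down in half-log steps, 0.25% DMSO final.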
# [1] = second compound 30 pM, first compound 0.00949 µM
# [2] = second compound 30 pM, first compound 0.03 µM
# [3] = second compound 30 pM, first compound 0.0949 µM
# [4] = second compound 30 pM, first compound 0.3 µM
# [5] = second compound 30 pM, first compound 0.949 µM
# [6] = second compound 30 pM, first compound 3 µM
# [7] = second compound 94.9 pM, first compound 0.00949 µM
# [8] = second compound 94.9 pM, first compound 0.03 µM
# [9] = second compound 94.9 pM, first compound 0.0949 µM
# [10] = second compound 94.9 pM, first compound 0.3 µM
# [11] = second compound 94.9 pM, first compound 0.949 µM
# [12] = second compound 94.9 pM, first compound 3 µM
# [13] = second compound 0.0003 µM, first compound 0.00949 µM
# [14] = second compound 0.0003 µM, first compound 0.03 µM
# [15] = second compound 0.0003 µM, first compound 0.0949 µM
# [16] = second compound 0.0003 µM, first compound 0.3 µM
# [17] = second compound 0.0003 µM, first compound 0.949 µM
# [18] = second compound 0.0003 µM, first compound 3 µM
# [19] = second compound 0.000949 µM, first compound 0.00949 µM
# [20] = second compound 0.000949 µM, first compound 0.03 µM
# [21] = second compound 0.000949 µM, first compound 0.0949 µM
# [22] = second compound 0.000949 µM, first compound 0.3 µM
# [23] = second compound 0.000949 µM, first compound 0.949 µM
# [24] = second compound 0.000949 µM, first compound 3 µM
# [25] = second compound 0.003 µM, first compound 0.00949 µM
# [26] = second compound 0.003 µM, first compound 0.03 µM
# [27] = second compound 0.003 µM, first compound 0.0949 µM
# [28] = second compound 0.003 µM, first compound 0.3 µM
# [29] = second compound 0.003 µM, first compound 0.949 µM
# [30] = second compound 0.003 µM, first compound 3 µM
compound,measurement,setting,value
CNCc1ccc(-c2cc(-c3nc(-c4ccc(S(=O)(=O)C(C)C)cc4)cnc3N)on2)cc1 + COc1cc2c(cc1O)CCNC21CSC2c3c(OC(C)=O)c(C)c4c(c3C(COC1=O)N1C(O)C3Cc5cc(C)c(OC)c(O)c5C(C21)N3C)OCO4,IC50,second compound 30 pM,84.2 nM
same,IC50,second compound 94.9 pM,< 9.49 nM
same,IC50,second compound 0.0003 µM,< 9.49 nM
same,IC50,second compound 0.000949 µM,< 9.49 nM
same,IC50,second compound 0.003 µM,< 9.49 nM
same,"viability, T/C",[1],79.9%
same,"viability, T/C",[2],86.5%
same,"viability, T/C",[3],45%
same,"viability, T/C",[4],15.5%
same,"viability, T/C",[5],10.5%
same,"viability, T/C",[6],1.88%
same,"viability, T/C",[7],34.3%
same,"viability, T/C",[8],29.2%
same,"viability, T/C",[9],14.2%
same,"viability, T/C",[10],8.3%
same,"viability, T/C",[11],9.95%
same,"viability, T/C",[12],0.36%
same,"viability, T/C",[13],8.48%
same,"viability, T/C",[14],25.4%
same,"viability, T/C",[15],8.28%
same,"viability, T/C",[16],10.4%
same,"viability, T/C",[17],9.76%
same,"viability, T/C",[18],0.75%
same,"viability, T/C",[19],8.38%
same,"viability, T/C",[20],9.01%
same,"viability, T/C",[21],8.98%
same,"viability, T/C",[22],9.91%
same,"viability, T/C",[23],10.3%
same,"viability, T/C",[24],0.62%
same,"viability, T/C",[25],0.5%
same,"viability, T/C",[26],1.4%
same,"viability, T/C",[27],0.58%
same,"viability, T/C",[28],0.82%
same,"viability, T/C",[29],0.56%
same,"viability, T/C",[30],1.15%
Cc1sc2c(c1C)C(c1ccc(Cl)cc1)=NC(CC(=O)Nc1ccc(O)cc1)c1nnc(C)n1-2 (stereo not given) + COc1cc2c(cc1O)CCNC21CSC2c3c(OC(C)=O)c(C)c4c(c3C(COC1=O)N1C(O)C3Cc5cc(C)c(OC)c(O)c5C(C21)N3C)OCO4,IC50,second compound 30 pM,139 nM
same,IC50,second compound 94.9 pM,< 9.49 nM
same,IC50,second compound 0.0003 µM,< 9.49 nM
same,IC50,second compound 0.000949 µM,< 9.49 nM
same,IC50,second compound 0.003 µM,< 9.49 nM
same,"viability, T/C",[1],77.2%
same,"viability, T/C",[2],90.2%
same,"viability, T/C",[3],69.2%
same,"viability, T/C",[4],11.1%
same,"viability, T/C",[5],3.27%
same,"viability, T/C",[6],2.11%
same,"viability, T/C",[7],34.7%
same,"viability, T/C",[8],33.6%
same,"viability, T/C",[9],35%
same,"viability, T/C",[10],7.23%
same,"viability, T/C",[11],3.48%
same,"viability, T/C",[12],1.41%
same,"viability, T/C",[13],8.51%
same,"viability, T/C",[14],6.28%
same,"viability, T/C",[15],6.64%
same,"viability, T/C",[16],4.03%
same,"viability, T/C",[17],1.94%
same,"viability, T/C",[18],2.8%
same,"viability, T/C",[19],6.63%
same,"viability, T/C",[20],6.95%
same,"viability, T/C",[21],4.47%
same,"viability, T/C",[22],1.87%
same,"viability, T/C",[23],1.26%
same,"viability, T/C",[24],0.53%
same,"viability, T/C",[25],0.27%
same,"viability, T/C",[26],0.37%
same,"viability, T/C",[27],0.18%
same,"viability, T/C",[28],0.13%
same,"viability, T/C",[29],0.18%
same,"viability, T/C",[30],0.31%
Cn1ncnc1[C@H]1c2n[nH]c(=O)c3cc(F)cc(c23)N[C@@H]1c1ccc(F)cc1 + COc1cc2c(cc1O)CCNC21CSC2c3c(OC(C)=O)c(C)c4c(c3C(COC1=O)N1C(O)C3Cc5cc(C)c(OC)c(O)c5C(C21)N3C)OCO4,IC50,second compound 30 pM,< 9.49 nM
same,IC50,second compound 94.9 pM,< 9.49 nM
same,IC50,second compound 0.0003 µM,< 9.49 nM
same,IC50,second compound 0.000949 µM,< 9.49 nM
same,IC50,second compound 0.003 µM,< 9.49 nM
same,"viability, T/C",[1],13.1%
same,"viability, T/C",[2],10.3%
same,"viability, T/C",[3],8.87%
same,"viability, T/C",[4],10.9%
same,"viability, T/C",[5],8.74%
same,"viability, T/C",[6],6.49%
same,"viability, T/C",[7],8.85%
same,"viability, T/C",[8],7.16%
same,"viability, T/C",[9],8.84%
same,"viability, T/C",[10],7.47%
same,"viability, T/C",[11],7.26%
same,"viability, T/C",[12],7.49%
same,"viability, T/C",[13],9.25%
same,"viability, T/C",[14],8.07%
same,"viability, T/C",[15],9.38%
same,"viability, T/C",[16],10.2%
same,"viability, T/C",[17],7.28%
same,"viability, T/C",[18],7.06%
same,"viability, T/C",[19],7.36%
same,"viability, T/C",[20],7.49%
same,"viability, T/C",[21],7.37%
same,"viability, T/C",[22],6.85%
same,"viability, T/C",[23],5.96%
same,"viability, T/C",[24],4.33%
same,"viability, T/C",[25],0.57%
same,"viability, T/C",[26],0.36%
same,"viability, T/C",[27],0.96%
same,"viability, T/C",[28],0.6%
same,"viability, T/C",[29],0.86%
same,"viability, T/C",[30],0.88%
O=C(c1cc(Cc2n[nH]c(=O)c3ccccc23)ccc1F)N1CCN(C(=O)C2CC2)CC1 + COc1cc2c(cc1O)CCNC21CSC2c3c(OC(C)=O)c(C)c4c(c3C(COC1=O)N1C(O)C3Cc5cc(C)c(OC)c(O)c5C(C21)N3C)OCO4,IC50,second compound 30 pM,356 nM
same,IC50,second compound 94.9 pM,< 94.9 nM
same,IC50,second compound 0.0003 µM,< 94.9 nM
same,IC50,second compound 0.000949 µM,< 94.9 nM
same,IC50,second compound 0.003 µM,< 94.9 nM
same,"viability, T/C",[3],67%
same,"viability, T/C",[4],48.7%
same,"viability, T/C",[5],41.7%
same,"viability, T/C",[6],22.3%
same,"viability, T/C","second compound 30 pM, first compound 9.49 µM",12.5%
same,"viability, T/C","second compound 30 pM, first compound 30 µM",8.97%
same,"viability, T/C",[9],23.4%
same,"viability, T/C",[10],13.7%
same,"viability, T/C",[11],14%
same,"viability, T/C",[12],13.3%
same,"viability, T/C","second compound 94.9 pM, first compound 9.49 µM",13.3%
same,"viability, T/C","second compound 94.9 pM, first compound 30 µM",6.02%
same,"viability, T/C",[15],10.9%
same,"viability, T/C",[16],8.6%
same,"viability, T/C",[17],11.6%
same,"viability, T/C",[18],11.6%
same,"viability, T/C","second compound 0.0003 µM, first compound 9.49 µM",8.94%
same,"viability, T/C","second compound 0.0003 µM, first compound 30 µM",6.85%
same,"viability, T/C",[21],6.97%
same,"viability, T/C",[22],8.6%
same,"viability, T/C",[23],8.56%
same,"viability, T/C",[24],7.26%
same,"viability, T/C","second compound 0.000949 µM, first compound 9.49 µM",5.7%
same,"viability, T/C","second compound 0.000949 µM, first compound 30 µM",4.86%
same,"viability, T/C",[27],0.61%
same,"viability, T/C",[28],0.45%
same,"viability, T/C",[29],0.63%
same,"viability, T/C",[30],0.7%
same,"viability, T/C","second compound 0.003 µM, first compound 9.49 µM",0.69%
same,"viability, T/C","second compound 0.003 µM, first compound 30 µM",1.37%
